# Laboratory results as given in patent US11661431B2, “Thienopyrrole compounds” (Gilead Sciences, Inc., priority 2021, dated 2023).
# What was measured:
# TLR8 = TLR8 (Homo sapiens (Human), UniProt Q9NR97); assay: TLR8 human peripheral blood mononuclear cell (PBMC) cell-based assay (Compound A as agonist; TNFα and IL12p40 readout); details: human PBMCs, TLR8 agonist Compound A at 800 nM, 6 hours, antagonist potency; read-out: TLR-8 EC50
# TLR7 = TLR7 (Homo sapiens (Human), UniProt Q9NYK1); assay: TLR7 human peripheral blood mononuclear cell (PBMC) cell-based assay (GS-986 as agonist; IL-6 and IFNα readout); details: human PBMCs, TLR7 agonist GS-986 at 400 nM, 6 hours, antagonist potency; read-out: TLR-7 EC50
# TLR7, sequence (Q9NYK1 27-1049): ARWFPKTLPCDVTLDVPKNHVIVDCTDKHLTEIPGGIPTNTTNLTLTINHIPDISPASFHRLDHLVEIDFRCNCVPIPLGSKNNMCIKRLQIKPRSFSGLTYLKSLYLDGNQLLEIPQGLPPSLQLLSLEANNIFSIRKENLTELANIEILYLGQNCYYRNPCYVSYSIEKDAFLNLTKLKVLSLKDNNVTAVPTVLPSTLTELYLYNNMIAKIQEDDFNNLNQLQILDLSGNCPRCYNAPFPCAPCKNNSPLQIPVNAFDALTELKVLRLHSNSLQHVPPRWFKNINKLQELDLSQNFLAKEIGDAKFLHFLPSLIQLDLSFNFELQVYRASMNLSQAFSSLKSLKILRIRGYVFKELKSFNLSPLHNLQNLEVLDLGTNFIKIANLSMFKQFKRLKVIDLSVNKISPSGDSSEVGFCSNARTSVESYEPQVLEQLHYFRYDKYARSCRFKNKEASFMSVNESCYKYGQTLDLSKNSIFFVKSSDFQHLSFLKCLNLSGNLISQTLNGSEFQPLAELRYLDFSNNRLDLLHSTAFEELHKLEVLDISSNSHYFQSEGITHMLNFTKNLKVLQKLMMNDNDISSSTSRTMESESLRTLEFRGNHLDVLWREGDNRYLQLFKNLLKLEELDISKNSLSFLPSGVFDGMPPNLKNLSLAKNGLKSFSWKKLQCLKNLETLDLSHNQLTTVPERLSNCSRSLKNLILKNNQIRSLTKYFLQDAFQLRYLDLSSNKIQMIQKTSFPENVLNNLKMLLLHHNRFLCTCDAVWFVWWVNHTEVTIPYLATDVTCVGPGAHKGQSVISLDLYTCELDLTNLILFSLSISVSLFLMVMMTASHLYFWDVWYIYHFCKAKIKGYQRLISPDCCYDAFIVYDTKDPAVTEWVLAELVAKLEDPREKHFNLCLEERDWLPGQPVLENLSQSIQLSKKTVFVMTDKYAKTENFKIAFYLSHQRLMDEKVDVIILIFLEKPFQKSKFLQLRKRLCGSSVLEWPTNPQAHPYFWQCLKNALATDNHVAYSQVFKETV
# How it was run: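 IL-6 and IFNα released into supernatant were quantified by electrochemiluminescence immunoassay. Before that, human PBMCs at 100,000 per well received a 10-point antagonist titration for 1 h, then TLR7 agonist for 6 more hours, all at 37 °C, 5% CO2.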
# TLR8, sequence (Q9NR97 27-1041): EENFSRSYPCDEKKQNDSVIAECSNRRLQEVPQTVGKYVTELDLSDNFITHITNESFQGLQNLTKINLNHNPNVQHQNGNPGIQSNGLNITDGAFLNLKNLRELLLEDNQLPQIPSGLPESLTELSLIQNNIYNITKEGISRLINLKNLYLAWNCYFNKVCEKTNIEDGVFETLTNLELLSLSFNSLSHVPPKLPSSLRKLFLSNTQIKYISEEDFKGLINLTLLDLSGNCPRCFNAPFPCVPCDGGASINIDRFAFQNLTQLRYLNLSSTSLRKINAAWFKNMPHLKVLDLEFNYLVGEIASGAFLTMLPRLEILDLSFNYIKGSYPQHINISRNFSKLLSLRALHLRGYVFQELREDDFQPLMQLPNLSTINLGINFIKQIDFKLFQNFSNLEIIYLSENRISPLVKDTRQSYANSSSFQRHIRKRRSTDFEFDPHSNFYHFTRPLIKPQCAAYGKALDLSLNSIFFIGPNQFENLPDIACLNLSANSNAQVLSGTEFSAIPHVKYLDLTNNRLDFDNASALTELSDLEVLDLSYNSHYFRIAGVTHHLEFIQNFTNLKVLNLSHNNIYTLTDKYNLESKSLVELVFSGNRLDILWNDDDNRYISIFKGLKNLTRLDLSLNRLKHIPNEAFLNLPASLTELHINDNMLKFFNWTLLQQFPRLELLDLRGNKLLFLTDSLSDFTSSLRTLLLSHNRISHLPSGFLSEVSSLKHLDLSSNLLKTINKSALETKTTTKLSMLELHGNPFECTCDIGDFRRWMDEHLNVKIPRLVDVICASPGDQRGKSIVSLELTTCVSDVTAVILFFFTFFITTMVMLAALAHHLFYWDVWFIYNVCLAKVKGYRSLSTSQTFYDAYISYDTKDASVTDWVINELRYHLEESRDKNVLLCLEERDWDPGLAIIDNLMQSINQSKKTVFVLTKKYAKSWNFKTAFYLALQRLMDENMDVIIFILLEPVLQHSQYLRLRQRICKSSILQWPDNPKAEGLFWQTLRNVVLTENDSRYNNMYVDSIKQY
Compound,EC50 (TLR8),EC50 (TLR7)
Cc1c(-c2ccc(N3CCNCC3)cc2)sc2[nH]c(-c3cc(C)c4ncnn4c3)c(C(C)C)c12 [Example 23],16.1 nM,0.56 nM
Cc1c(C2CCC3(CC2)CN(CC(N)=O)C3)sc2[nH]c(-c3cc(C)c4ncnn4c3)c(C(C)C)c12 [Example 25],2.95 nM,0.11 nM
Cc1cc(-c2[nH]c3sc(C4CCN(CC(N)=O)CC4)cc3c2C(C)C)cn2ncnc12 [Example 26],1.61 nM,0.68 nM
Cc1c(C2CC3(C2)CN(CC(N)=O)C3)sc2[nH]c(-c3cc(C)c4ncnn4c3)c(C(C)C)c12 [Example 29],0.21 nM,0.94 nM
Cc1c(C2CC3COCC(C2)N3CC(N)=O)sc2[nH]c(-c3cc(C)c4ncnn4c3)c(C(C)C)c12 (centres unmarked) [Example 30],257 nM,3.42 nM
Cc1c(-c2[nH]c3sc(C4CC5(C4)CN(CC(N)=O)C5)c(C)c3c2C(C)C)cn2ncnc2c1C [Example 31],0.05 nM,3.15 nM
Cc1c(C2CC3COCC(C2)N3CCO)sc2[nH]c(-c3cc(C)c4ncnn4c3)c(C(C)C)c12 (centres unmarked) [Example 33],45.9 nM,7.19 nM
Cc1c(-c2[nH]c3sc(C4CC5(C4)CN(C(=O)[C@H]4COCCN4)C5)c(C)c3c2C(C)C)cn2ncnc2c1C [Example 52],1.12 nM,2.08 nM
"Cc1c(C2CC3(CNC3)C2)sc2[nH]c(-c3cc(C)c4ncnn4c3)c(C(C)C)c12 [Example 58, 4-isopropyl-3-methyl-5-(8-methyl-[1,2,4]triazolo[1,5-a]pyridin-6-yl)-2-(2-azaspiro[3.3]heptan-6-yl)-6H-thieno[2,3-b]pyrrole]",1.74 nM,0.24 nM
Cc1c(C2CC3COCC(C2)N3)sc2[nH]c(-c3cc(C)c4ncnn4c3)c(C(C)C)c12 (centres unmarked) [Example 59],28.4 nM,2.97 nM
Cc1c(-c2[nH]c3sc(C4CC5(CNC5)C4)c(C)c3c2C(C)C)cn2ncnc2c1C [Example 60],0.93 nM,1.81 nM
Cc1c(C2CCC3(CNC3)C2)sc2[nH]c(-c3cc(C)c4ncnn4c3)c(C(C)C)c12 (centres unmarked) [Example 61],9.09 nM,0.19 nM
"Cc1c(C2CC3CCC(C2)N3CC(N)=O)sc2[nH]c(-c3cc(C)c4ncnn4c3)c(C(C)C)c12 (centres unmarked) [Example 62, 2-(3-(4-isopropyl-3-methyl-5-(8-methyl-[1,2,4]triazolo[1,5-a]pyridin-6-yl)-6H-thieno[2,3-b]pyrrol-2-yl)-8-azabicyclo[3.2.1]octan-8-yl)acetamide]",7.17 nM,0.19 nM
Cc1c(C2C3CCC2CN(CC(N)=O)C3)sc2[nH]c(-c3cc(C)c4ncnn4c3)c(C(C)C)c12 (centres unmarked) [Example 63],27.3 nM,0.26 nM
Cc1c(C2CN(CC(N)=O)C2)sc2[nH]c(-c3cc(C)c4ncnn4c3)c(C(C)C)c12 [Example 64],9.48 nM,3.12 nM
Cc1c(C2C3CC2CN(CC(N)=O)C3)sc2[nH]c(-c3cc(C)c4ncnn4c3)c(C(C)C)c12 (centres unmarked) [Example 65],33.1 nM,28.1 nM
Cc1c(C2C[C@@H]3C[C@H]2CN3CC(N)=O)sc2[nH]c(-c3cc(C)c4ncnn4c3)c(C(C)C)c12 (some centres unmarked) [Example 66],0.16 nM,0.12 nM
"Cc1c([C@H]2C[C@@H]3CN(CC(N)=O)C[C@@H]3C2)sc2[nH]c(-c3cc(C)c4ncnn4c3)c(C(C)C)c12 [Example 70, 2-((3aR,6aS)-5-(4-isopropyl-3-methyl-5-(8-methyl-[1,2,4]triazolo[1,5-a]pyridin-6-yl)-6H-thieno[2,3-b]pyrrol-2-yl)hexahydrocyclopenta[c]pyrrol-2(1H)-yl)acetamide]",5.95 nM,0.05 nM
"Cc1c([C@@H]2C[C@@H]3CN(CC(N)=O)C[C@@H]3C2)sc2[nH]c(-c3cc(C)c4ncnn4c3)c(C(C)C)c12 [Example 71, 2-((3aR,6aS)-5-(4-isopropyl-3-methyl-5-(8-methyl-[1,2,4]triazolo[1,5-a]pyridin-6-yl)-6H-thieno[2,3-b]pyrrol-2-yl)hexahydrocyclopenta[c]pyrrol-2(1H)-yl)acetamide]",7.75 nM,0.45 nM
"Cc1c(-c2[nH]c3sc([C@@H]4C[C@@H]5C[C@H]4CN5)c(C)c3c2C(C)C)cn2ncnc2c1C [Example 72, 2-((1S,4R,5R)-2-azabicyclo[2.2.1]heptan-5-yl)-5-(7,8-dimethyl-[1,2,4]triazolo[1,5-a]pyridin-6-yl)-4-isopropyl-3-methyl-6H-thieno[2,3-b]pyrrole]",0.11 nM,0.1 nM
Cc1c(-c2[nH]c3sc(C4CCNCC4)c(C)c3c2C(C)C)cn2ncnc2c1C [Example 73],4.16 nM,0.1 nM
Cc1c(-c2[nH]c3sc([C@H]4C[C@H]5C[C@@H]4CN5)c(C)c3c2C(C)C)cn2ncnc2c1C [Example 74],0.94 nM,0.05 nM
"Cc1c(-c2[nH]c3sc(C4CC5(CNCCO5)C4)c(C)c3c2C(C)C)cn2ncnc2c1C (centres unmarked) [Example 76, 2-(5-(7,8-dimethyl-[1,2,4]triazolo[1,5-a]pyridin-6-yl)-4-isopropyl-3-methyl-6H-thieno[2,3-b]pyrrol-2-yl)-5-oxa-8-azaspiro[3.5]nonane]",0.24 nM,0.05 nM

# Now from value to compound:
EC50 (TLR8),EC50 (TLR7),Compound
8.98 nM,0.29 nM,Cc1c(C2CCC3(CC2)CNC3)sc2[nH]c(-c3cc(C)c4ncnn4c3)c(C(C)C)c12 [Example 24]
8.43 nM,0.25 nM,Cc1c(C2CCN(C(C)C(N)=O)CC2)sc2[nH]c(-c3cc(C)c4ncnn4c3)c(C(C)C)c12 (centres unmarked) [Example 27]
19.7 nM,1.06 nM,CNC(=O)CN1CCC(c2sc3[nH]c(-c4cc(C)c5ncnn5c4)c(C(C)C)c3c2C)CC1 [Example 28]
8.32 nM,0.05 nM,Cc1c(C2CCN(C(=O)N3CCNCC3)CC2)sc2[nH]c(-c3cc(C)c4ncnn4c3)c(C(C)C)c12 [Example 32]
4.45 nM,0.06 nM,Cc1c(C2CCN(C(=O)CN3CCCC3)CC2)sc2[nH]c(-c3cc(C)c4ncnn4c3)c(C(C)C)c12 [Example 34]
13 nM,0.1 nM,Cc1c(C2CCN(C(=O)[C@H]3COCCN3)CC2)sc2[nH]c(-c3cc(C)c4ncnn4c3)c(C(C)C)c12 [Example 35]
20.8 nM,0.54 nM,Cc1c(C2CCN(C(=O)[C@@H]3COCCN3)CC2)sc2[nH]c(-c3cc(C)c4ncnn4c3)c(C(C)C)c12 [Example 36]
9.95 nM,0.2 nM,Cc1c(C2CCC3(CC2)CN(C(=O)[C@@H]2CCCN2)C3)sc2[nH]c(-c3cc(C)c4ncnn4c3)c(C(C)C)c12 [Example 37]
10.4 nM,0.22 nM,Cc1c(C2CCC3(CC2)CN(C(=O)[C@H]2CCCN2)C3)sc2[nH]c(-c3cc(C)c4ncnn4c3)c(C(C)C)c12 [Example 38]
125 nM,1.18 nM,Cc1c(C2CCN(C(=O)[C@H]3CC(F)(F)CN3)CC2)sc2[nH]c(-c3cc(C)c4ncnn4c3)c(C(C)C)c12 [Example 39]
3.14 nM,0.07 nM,Cc1c(C2CCN(C(=O)C34CC(CN3)C4)CC2)sc2[nH]c(-c3cc(C)c4ncnn4c3)c(C(C)C)c12 [Example 40]
12.3 nM,0.35 nM,Cc1c(C2CCN(C(=O)C34CC(F)(CN3)C4)CC2)sc2[nH]c(-c3cc(C)c4ncnn4c3)c(C(C)C)c12 [Example 41]
25.7 nM,0.78 nM,Cc1c(C2CCN(C(=O)[C@H]3C[C@@H](F)CN3)CC2)sc2[nH]c(-c3cc(C)c4ncnn4c3)c(C(C)C)c12 [Example 42]
19 nM,0.32 nM,Cc1c(C2CCN(C(=O)[C@H]3C[C@H](F)CN3)CC2)sc2[nH]c(-c3cc(C)c4ncnn4c3)c(C(C)C)c12 [Example 43]
13.1 nM,0.37 nM,CO[C@H]1CN[C@@H](C(=O)N2CCC(c3sc4[nH]c(-c5cc(C)c6ncnn6c5)c(C(C)C)c4c3C)CC2)C1 [Example 44]
15.6 nM,0.13 nM,CO[C@@H]1CN[C@@H](C(=O)N2CCC(c3sc4[nH]c(-c5cc(C)c6ncnn6c5)c(C(C)C)c4c3C)CC2)C1 [Example 45]
13 nM,0.59 nM,Cc1c(C2CCN(C(=O)[C@H]3CNCCO3)CC2)sc2[nH]c(-c3cc(C)c4ncnn4c3)c(C(C)C)c12 [Example 46]
14.1 nM,0.24 nM,Cc1c(C2CCN(C(=O)[C@@H]3CNCCO3)CC2)sc2[nH]c(-c3cc(C)c4ncnn4c3)c(C(C)C)c12 [Example 47]
19.7 nM,0.29 nM,Cc1c(C2CCN(C(=O)[C@H]3COCCN3C)CC2)sc2[nH]c(-c3cc(C)c4ncnn4c3)c(C(C)C)c12 [Example 48]
27.9 nM,1.12 nM,Cc1c(C2CCN(C(=O)[C@@H]3COCCN3C)CC2)sc2[nH]c(-c3cc(C)c4ncnn4c3)c(C(C)C)c12 [Example 49]
35.9 nM,1.76 nM,Cc1c(C2CCN(C(=O)CN3CCOCC3)CC2)sc2[nH]c(-c3cc(C)c4ncnn4c3)c(C(C)C)c12 [Example 50]
19.3 nM,0.43 nM,Cc1c(C2CCN(C(=O)C3(C)COCCN3)CC2)sc2[nH]c(-c3cc(C)c4ncnn4c3)c(C(C)C)c12 (centres unmarked) [Example 51]
2.42 nM,0.27 nM,Cc1c(C2CC3(C2)CN(C(=O)[C@H]2COCCN2)C3)sc2[nH]c(-c3cc(C)c4ncnn4c3)c(C(C)C)c12 [Example 53]
19.8 nM,0.59 nM,Cc1c(C2CCN(C(=O)C3COCC(C)(C)N3)CC2)sc2[nH]c(-c3cc(C)c4ncnn4c3)c(C(C)C)c12 (centres unmarked) [Example 54]
16.6 nM,0.23 nM,Cc1c(C2CCN(C(=O)C34COC(CN3)C4)CC2)sc2[nH]c(-c3cc(C)c4ncnn4c3)c(C(C)C)c12 (centres unmarked) [Example 55]
15.5 nM,0.27 nM,Cc1cc(-c2[nH]c3sc(C4CCN(C(=O)[C@H]5COCCN5)CC4)cc3c2C(C)C)cn2ncnc12 [Example 57]
